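Where inhibition never reached the appropriate level, the endpoint shown equals the highest concentration tested. Otherwise, values were interpolated linearly from a five-concentration, 48-hour dose response in 96-well plates. GI50: concentration for 50% inhibition of growth. Definition used: TGI = concentration required for complete inhibition of growth.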
Legend:
Assay in all cases: NCI anticancer screen, dose series, 48 h
[1] = system: 786-0 renal
[2] = system: A498 renal
[3] = system: A549 NSCLC
[4] = system: ACHN renal
[5] = system: BT-549 breast
[6] = system: CAKI-1 renal
[7] = system: COLO 205 colon
[8] = system: DU-145 prostate
[9] = system: EKVX NSCLC
[10] = system: HCC-2998 colon
[11] = system: HCT-116 colon
[12] = system: HL-60(TB) leukemia
[13] = system: HOP-62 NSCLC
[14] = system: HOP-92 NSCLC
[15] = system: HS 578T breast
[16] = system: HT29 colon
[17] = system: IGROV1 ovarian
[18] = system: KM12 colon
[19] = system: M14 melanoma
[20] = system: MDA-MB-231 breast
[21] = system: MDA-MB-435
[22] = system: MOLT-4 leukemia
[23] = system: NCI-H226 lung
[24] = system: NCI-H23 lung
[25] = system: NCI-H460 lung
[26] = system: NCI-H522 lung
[27] = system: NCI/ADR-RES ovarian
[28] = system: OVCAR-3 ovarian
[29] = system: OVCAR-4 ovarian
[30] = system: OVCAR-5 ovarian
[31] = system: OVCAR-8 ovarian
[32] = system: PC-3 prostate
[33] = system: RPMI-8226 leukemia
[34] = system: SF-268 CNS
[35] = system: SF-295 CNS
[36] = system: SK-MEL-2 melanoma
[37] = system: SK-MEL-28 melanoma
[38] = system: SK-MEL-5 melanoma
[39] = system: SK-OV-3 ovarian
[40] = system: SN12C renal
[41] = system: SNB-19 CNS
[42] = system: SNB-75 CNS
[43] = system: SR leukemia
[44] = system: SW-620 colon
[45] = system: T-47D breast
[46] = system: TK-10 renal
[47] = system: U251 CNS
[48] = system: UACC-257 melanoma
[49] = system: UACC-62 melanoma
[50] = system: UO-31 renal

Q: What does the source list for `O=C1c2ccn(CCCCNC(CO)(CO)CO)c2C(=O)c2c1c(O)c1ccccc1c2O`?
A: GI50 [1]: 2.29 µM; TGI [1]: 6.05 µM; GI50 [2]: 16.5 µM; TGI [2]: 46.8 µM; GI50 [3]: 1.86 µM; TGI [3]: 3.96 µM; GI50 [4]: 0.56 µM; TGI [4]: 1.89 µM; GI50 [5]: 22.7 µM; TGI [5]: 69.9 µM; GI50 [6]: 0.808 µM; TGI [6]: 2.68 µM; GI50 [7]: 0.912 µM; TGI [7]: > 23.6 µM; GI50 [8]: 1.89 µM; TGI [8]: 4.69 µM; GI50 [9]: 24.8 µM; TGI [9]: 74 µM; GI50 [10]: 0.17 µM; TGI [10]: 0.515 µM; GI50 [11]: 0.436 µM; TGI [11]: 0.857 µM; GI50 [12]: 2.56 µM; TGI [12]: 21 µM; GI50 [13]: 3.82 µM; TGI [13]: 8.77 µM; GI50 [14]: 1.89 µM; TGI [14]: 19.6 µM; GI50 [15]: 11.5 µM; TGI [15]: > 75 µM; GI50 [16]: 1.83 µM; TGI [16]: 4.37 µM; GI50 [17]: 2.01 µM; TGI [17]: > 100 µM; GI50 [18]: 0.592 µM; TGI [18]: 1.76 µM; GI50 [19]: 1.86 µM; TGI [19]: 3.59 µM; GI50 [20]: 0.457 µM; TGI [20]: 2.26 µM; GI50 [21]: 0.992 µM; TGI [21]: 2.42 µM; GI50 [22]: 2.27 µM; TGI [22]: 4.2 µM; GI50 [23]: 2.81 µM; TGI [23]: 9.35 µM; GI50 [24]: 3.01 µM; TGI [24]: 7.78 µM; GI50 [25]: 4.57 µM; TGI [25]: 13.8 µM; GI50 [26]: 4.38 µM; TGI [26]: > 100 µM; GI50 [27]: 16.3 µM; TGI [27]: 42.3 µM; GI50 [28]: 0.183 µM; TGI [28]: 0.388 µM; GI50 [29]: 2.35 µM; TGI [29]: > 22.2 µM; GI50 [30]: 1.91 µM; TGI [30]: 4.4 µM; GI50 [31]: 2.17 µM; TGI [31]: 11.4 µM; GI50 [32]: 2.83 µM; TGI [32]: 7.57 µM; GI50 [33]: 1.21 µM; TGI [33]: 11 µM; GI50 [34]: 3.41 µM; TGI [34]: 18.1 µM; GI50 [35]: 0.719 µM; TGI [35]: 2.24 µM; GI50 [36]: 31.6 µM; TGI [36]: > 100 µM; GI50 [37]: 6.44 µM; TGI [37]: > 43.6 µM; GI50 [38]: 5.21 µM; TGI [38]: 53.1 µM; GI50 [39]: 7.81 µM; TGI [39]: > 47.8 µM; GI50 [40]: 4.39 µM; TGI [40]: 8.83 µM; GI50 [41]: 3.33 µM; TGI [41]: 22.6 µM; GI50 [42]: 11.9 µM; TGI [42]: 47.2 µM; GI50 [43]: 2.42 µM; TGI [43]: 5.76 µM; GI50 [44]: 2.02 µM; TGI [44]: 13 µM; GI50 [45]: 2.76 µM; TGI [45]: > 22.1 µM; GI50 [46]: 0.517 µM; TGI [46]: 1.72 µM; GI50 [47]: 1.95 µM; TGI [47]: 4.67 µM; GI50 [48]: 7.71 µM; TGI [48]: 24.6 µM; TGI [49]: 0.931 µM; GI50 [50]: 23.7 µM; TGI [50]: > 100 µM

— PubChem BioAssay (NCI)
